pIC50: −log10 of the molar value.
Assays:
Focal adhesion kinase 1 [1] = biological target: T1, Focal adhesion kinase 1 (Homo sapiens, UniProt Q05397)
in vitro = settings: human, liver microsomes
Description: Metabolic stability in human liver microsomes assessed as hepatic extraction ratio

Focal adhesion kinase 1 [2] = biological target: T1, Focal adhesion kinase 1; assay: Inhibition of GST-tagged FAK assessed as inhibition of poly-Glu-Tyr phosphorylation by fluorescence polarization assay
[3] = biological target: Protein-tyrosine kinase 2-beta (Homo sapiens, UniProt Q14289)
Description: Inhibition of GST-tagged pyk2 assessed as inhibition of poly-Glu-Tyr phosphorylation

[4] = Oral bioavailability in rat; format: ADME, organism-based; settings: in vivo

Protein-tyrosine kinase 2-beta, sequence (Q14289 whole entry): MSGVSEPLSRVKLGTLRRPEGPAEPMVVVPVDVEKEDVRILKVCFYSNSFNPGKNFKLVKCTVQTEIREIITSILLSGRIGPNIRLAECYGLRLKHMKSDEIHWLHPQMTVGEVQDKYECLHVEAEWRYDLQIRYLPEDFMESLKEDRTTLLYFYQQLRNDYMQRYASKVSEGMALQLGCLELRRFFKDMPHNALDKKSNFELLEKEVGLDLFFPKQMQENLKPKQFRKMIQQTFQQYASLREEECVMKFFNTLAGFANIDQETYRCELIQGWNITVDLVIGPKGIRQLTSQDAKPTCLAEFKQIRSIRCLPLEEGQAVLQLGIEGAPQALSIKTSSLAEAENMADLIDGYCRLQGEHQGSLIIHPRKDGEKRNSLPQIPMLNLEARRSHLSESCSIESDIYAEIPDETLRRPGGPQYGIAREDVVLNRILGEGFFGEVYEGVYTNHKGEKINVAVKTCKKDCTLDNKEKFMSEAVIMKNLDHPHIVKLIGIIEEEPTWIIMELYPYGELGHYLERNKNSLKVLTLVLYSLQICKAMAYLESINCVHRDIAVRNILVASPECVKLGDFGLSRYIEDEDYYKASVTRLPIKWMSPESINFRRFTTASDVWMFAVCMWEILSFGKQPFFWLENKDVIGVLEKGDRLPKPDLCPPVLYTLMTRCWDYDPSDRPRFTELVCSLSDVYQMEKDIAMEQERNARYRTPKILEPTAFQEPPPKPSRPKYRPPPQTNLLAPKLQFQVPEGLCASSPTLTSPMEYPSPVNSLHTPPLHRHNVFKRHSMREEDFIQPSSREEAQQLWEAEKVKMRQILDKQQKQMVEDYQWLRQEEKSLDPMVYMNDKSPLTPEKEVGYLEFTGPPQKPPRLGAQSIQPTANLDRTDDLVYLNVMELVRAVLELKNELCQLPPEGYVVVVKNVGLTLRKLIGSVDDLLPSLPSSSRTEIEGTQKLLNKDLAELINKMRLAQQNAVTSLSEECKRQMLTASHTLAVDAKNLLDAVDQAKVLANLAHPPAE
T1 sequence (Q05397 whole entry): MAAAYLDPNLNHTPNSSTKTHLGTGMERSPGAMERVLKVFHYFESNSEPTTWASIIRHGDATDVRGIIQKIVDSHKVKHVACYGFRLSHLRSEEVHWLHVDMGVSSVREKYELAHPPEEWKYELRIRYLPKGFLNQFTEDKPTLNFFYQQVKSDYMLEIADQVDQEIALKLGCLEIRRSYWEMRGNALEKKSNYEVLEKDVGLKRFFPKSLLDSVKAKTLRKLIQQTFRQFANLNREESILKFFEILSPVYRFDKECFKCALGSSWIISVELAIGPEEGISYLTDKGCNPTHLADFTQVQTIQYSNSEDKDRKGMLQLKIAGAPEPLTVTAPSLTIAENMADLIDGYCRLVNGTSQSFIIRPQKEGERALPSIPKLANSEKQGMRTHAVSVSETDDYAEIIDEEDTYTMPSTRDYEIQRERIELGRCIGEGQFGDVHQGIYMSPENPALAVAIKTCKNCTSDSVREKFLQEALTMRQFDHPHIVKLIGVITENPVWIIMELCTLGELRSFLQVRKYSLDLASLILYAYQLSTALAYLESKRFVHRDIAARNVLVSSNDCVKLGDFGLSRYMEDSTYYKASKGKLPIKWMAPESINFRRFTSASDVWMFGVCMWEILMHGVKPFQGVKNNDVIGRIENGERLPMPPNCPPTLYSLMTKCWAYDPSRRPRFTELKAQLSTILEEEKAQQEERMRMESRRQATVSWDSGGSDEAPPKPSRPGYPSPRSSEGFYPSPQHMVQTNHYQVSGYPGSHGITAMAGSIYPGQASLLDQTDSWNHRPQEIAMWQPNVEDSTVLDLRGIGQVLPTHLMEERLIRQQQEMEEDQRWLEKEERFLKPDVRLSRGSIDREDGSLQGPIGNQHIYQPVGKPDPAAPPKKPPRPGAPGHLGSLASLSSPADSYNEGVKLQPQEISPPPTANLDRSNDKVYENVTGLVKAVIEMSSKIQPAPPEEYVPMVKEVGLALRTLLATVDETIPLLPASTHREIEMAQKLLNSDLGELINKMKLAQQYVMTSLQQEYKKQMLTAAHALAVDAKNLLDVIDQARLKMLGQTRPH

Row | Compound | hepatic extraction ratio (in vitro) | pIC50 (Focal adhesion kinase 1 [2]) | bioavailability [4] [%] | pIC50 (Focal adhesion kinase 1 [1]) | pIC50 [3]
1 | O=C1Cc2cc(Nc3ncc(C(F)(F)F)c(NCc4ccccc4)n3)ccc2N1 | < 0.26 | – | – | 7.47 | 6.92
2 | O=C1Cc2cc(Nc3nccc(NCc4ccccn4)n3)ccc2N1 | < 0.26 | – | – | < 5.00 | < 5.00
3 | Cc1cnc(Nc2ccc3c(c2)CC(=O)N3)nc1NCc1ccccn1 | < 0.3 | – | – | 5.66 | < 5.52
4 | O=C1CCCc2cc(Nc3ncc(C(F)(F)F)c(NC4CCC4)n3)ccc2N1 | – | – | – | – | 7.48
5 | CS(=O)(=O)c1cccc(CNc2nc(Nc3ccc4c(c3)CC(=O)N4)ncc2C(F)(F)F)c1 | 0.35 | – | – | 8.05 | < 5.96
6 | CS(=O)(=O)c1ccccc1CNc1nc(Nc2ccc3c(c2)CC(=O)N3)ncc1C(F)(F)F | 0.55 | – | – | 7.23 | 7.82
7 | CN(c1ccccc1CNc1nc(Nc2ccc(S(C)(=O)=O)cc2)ncc1C(F)(F)F)S(C)(=O)=O | 0.93 | – | – | 9.03 | 7.46
8 | O=C1Cc2cc(Nc3ncc(Cl)c(NCc4ccccn4)n3)ccc2N1 | < 0.28 | – | – | 7.11 | < 6.00
9 | CN(c1cccc(CNc2nc(Nc3ccc4c(c3)CC(=O)N4)ncc2C(F)(F)F)c1)S(C)(=O)=O | 0.59 | – | – | 8.72 | 6.72

Now from value to compound, other results behind:

Row | hepatic extraction ratio (in vitro) | pIC50 (Focal adhesion kinase 1 [2]) | bioavailability [4] [%] | Compound | pIC50 (Focal adhesion kinase 1 [1]) | pIC50 [3]
10 | 0.48 | 5.16 | – | CN(C)[C@@H]1CCC[C@H]1Nc1nc(Nc2ccncc2)ncc1C(F)(F)F | 5.39 | –
11 | < 0.26 | – | – | CN(C)[C@@H]1CCC[C@H]1Nc1nc(Nc2ccc3c(c2)CS(=O)(=O)N3)ncc1C(F)(F)F | < 6.19 | 7.30
12 | 0.66 | 5.40 | – | CN(C)C(=O)c1cccc(Nc2ncc(C(F)(F)F)c(N[C@@H]3CCC[C@H]3N(C)C)n2)c1 | 5.41 | –
13 | 0.66 | – | – | CCN(CC)C(=O)c1ccc(Nc2ncc(C(F)(F)F)c(N[C@@H]3CCC[C@H]3N(C)C)n2)cc1 | 5.48 | –
14 | – | – | < 5 | Cn1ccc2cc(Nc3ncc(C(F)(F)F)c(NCc4ccccn4)n3)ccc21 | – | –
15 | – | – | < 5 | FC(F)(F)c1cnc(Nc2ccc3[nH]ncc3c2)nc1NCc1ccccn1 | – | –
16 | 0.41 | – | – | CN(C)[C@@H]1CCC[C@H]1Nc1nc(Nc2ccn3ccnc3c2)ncc1C(F)(F)F | – | –

From ChEMBL document CHEMBL1152158, “Trifluoromethylpyrimidine-based inhibitors of proline-rich tyrosine kinase 2 (PYK2): structure-activity relationships and strategies for the elimination of reactive metabolite formation” (Bioorg Med Chem Lett, 2008)
